In PMC9880178, “Cecropin D-derived synthetic peptides in the fight against Candida albicans cell filamentation and biofilm formation” (Frontiers in Microbiology, 2023):
Like-named read-outs stand apart in the source and are kept apart here. Where no end group is shown, it is not given here.

Legend:
C. albicans cells = assay: microbe, parasite or virus in culture; settings: for IC90: 24 h; for FICI: combination of peptide with caspofungin
Method: To determine the viability of C. albicans, the 2,3-bis(2-methoxy-4-nitro-5-sulfo-phenyl)-2H-tetrazolium-5-carboxanilide (XTT) (ThermoFisher Scientific) reduction assay is used as a routine tool for quantitative measurement of fungal metabolic activity, growth and response to antifungal treatment ([van Dijck et al., 2018]). The tests were performed as described ([Kulig et al., 2022]) with some modifications. Briefly, 100 μl of RPMI 1640 medium without phenol red (Biowest) and 50 μl of XTT solution (1 mg/ml; Invitrogen, Waltham, MA, United States), freshly activated with phenazine methosulfate (5 μg/ml; Sigma-Aldrich) in the same medium, were added to C. albicans cells. After 40 min of incubation at 37°C in the dark, 100 μl of supernatants were transferred to the wells of a new 96-well microplate (Sarstedt, Nümbrecht, Germany). The absorbance of the formazan product was measured spectrophotometrically at 450 nm using a Synergy H1 microplate reader (BioTek Instruments, Winooski, VT, United States).
The following concentrations of peptides and antifungal drugs were used for the assay: ΔM3 0.4–50 μM, ΔM4 0.4–3.1 μM, amphotericin B 0.2–1.6 μM, fluconazole 0.2–1.6 μM and caspofungin 0.003–0.2 μM (the latter two from Sigma-Aldrich). The combinatory effects of each peptide and each conventional antimycotic drug were tested by the previously described checkerboard method ([Guo et al., 2008]; [Do Nascimento Dias et al., 2020]) with minor modification. C. albicans cells (3 × 10^2) were suspended in 100 μl of RPMI 1640 medium, containing peptide, drug, or their combination, in wells of Falcon® 96-well clear flat bottom TC-treated culture microplate (Corning). Fungal cells only in RPMI 1640 medium without peptides and drugs served as a control. Incubation was carried out for 24 h at 37°C in an atmosphere of 5% CO2 and 95% humidity without shaking. After this time, cell viability was measured using an XTT reduction assay. The analysis was performed in biological triplicate. For each combination, Fractional Inhibitory Concentration Index (FICI) was determined using the following formula: […]
Where FICa is the ratio of IC90 value for the compound a in combination to the IC90 value of the agent a alone; FICb is the ratio of IC90 value for compound b in combination to the IC90 value of the agent b alone.
The FICI ≤0.5 was interpreted as a synergistic effect, 0.5< FICI ≤1.0 as additive, 1.0< FICI ≤2.0 as indifferent and FICI >2.0 as antagonism.

[1] = test system: mitochondria of C. albicans biofilm cells; assay: Mitochondrial activity, MitoTracker Orange / MitoTracker Green; format: cell-based, Candida albicans; settings: 50 μM ΔM3, 6.2 μM ΔM4 or 2.7 μM amphotericin B, 3 h, 24-h biofilm
Method: The 24-h biofilms of C. albicans were incubated with 100 μl of ΔM3 (50 μM) or ΔM4 (6.2 μM) and amphotericin B (2.7 μM; positive control) solutions in RPMI 1640 medium for 3 h at 37°C. After that time, biofilms were washed with 200 μl of PBS and incubated for 30 min at 37°C with MitoTracker Green TM dye (Invitrogen) at final concentration of 500 nM, used to detect the change in total mitochondrial mass, and MitoTracker Orange (500 nM), used to detect the change in mitochondrial activity. Mitochondria were imaged in the FITC and TRIC channel, using the Olympus IX73 microscope.

[2] = test system: cytosolic Ca2+ in C. albicans biofilm; assay: Cytosolic Ca2+, Fura-2 Calcium Flux Assay; format: cell-based, Candida albicans; settings: 10 mM, positive control, 3 h, 24-h biofilm
Method: Accumulation of cytosolic Ca^2+ was measured with the Fura-2 Calcium Flux Assay Kit (Abcam, Cambridge, Great Britain). The 24-h biofilms of C. albicans were incubated for 3 h with 100 μl of ΔM3 (25 μM and 50 μM) or ΔM4 (6.2 μM and 12.5 μM) and H2O2 (10 mM; positive control) solutions prepared in RPMI 1640. The concentration of peptides was chosen close to those for which the effect of apoptosis was obtained in experiments analyzing the activity of metacaspases. After incubation, biofilms were washed with Hanks Balanced Salt Solution (Biowest) with Pluronic® F127 Plus (Abcam). Then 100 μl of Fura-2 AM solution was added to the biofilms and incubated for 1 h at room temperature. The fluorescence was then measured using a Synergy H1 microplate reader with excitation at 340 nm and emission at 510 nm.

human erythrocytes = settings: cited from earlier work
Source text: Promising antimicrobial properties were also previously reported for the cecropin D-like peptide (UniProtKB accession number: P85210) from the greater wax moth Galleria mellonella ([Cytrynska et al., 2007]). Modification of particular residues resulting in an increase of peptide charge and basic residues on the polar face of the molecule compared to a neutral wild-type peptide, enhanced the antibacterial activity of peptides derived from the cecropin D-like natural sequence. One such type of derivative was the synthetic cationic peptide ΔM2 with 39 amino acid residues and a charge of +9, which ...

[3] = Candida albicans, read-out: IC90, compound acting alone
[4] = drug (compound a) in combination with ΔM3
[5] = drug (compound a) in combination with ΔM4

Molecule `C[C@@H]1[C@H](O)[C@@H](C)/C=C/C=C/C=C/C=C/C=C/C=C/C=C/[C@H](O[C@@H]2O[C@H](C)[C@@H](O)[C@H](N)[C@@H]2O)C[C@@H]2O[C@](O)(C[C@@H](O)C[C@@H](O)[C@H](O)CC[C@@H](O)C[C@@H](O)CC(=O)O[C@H]1C)C[C@H](O)[C@H]2C(=O)O` [Amphotericin B, amphotericin B] has an IC90 (C. albicans cells; [3]) of 1600 nM, an FICa (C. albicans cells; [4]) of 0.5 and an FICa (C. albicans cells; [5]) of 0.5. For the same molecule, the “mitochondrial activity (MitoTracker Orange fluorescence)” value [1] was “partial loss of mitochondrial activity”.
In the case of `CC[C@H](C)C[C@H](C)CCCCCCCCC(=O)N[C@H]1C[C@@H](O)[C@@H](NCCN)NC(=O)[C@@H]2[C@@H](O)CCN2C(=O)[C@H]([C@H](O)CCN)NC(=O)[C@H]([C@H](O)[C@@H](O)c2ccc(O)cc2)NC(=O)[C@@H]2C[C@@H](O)CN2C(=O)[C@H]([C@@H](C)O)NC1=O` [Caspofungin, caspofungin], the IC90 (C. albicans cells; [3]) is reported as 100 nM, the FICa (C. albicans cells; [4]) is reported as 0.03 and the FICa (C. albicans cells; [5]) is reported as 0.12.
In the case of `OC(Cn1cncn1)(Cn1cncn1)c1ccc(F)cc1F` [Fluconazole, fluconazole], the IC90 (C. albicans cells; [3]) is reported as 800 nM, the “IC90 in combination with each peptide compared to administered alone” value (C. albicans cells; combination with ΔM3 or ΔM4) is reported as “four-fold lower” and the FICa (C. albicans cells; [4]) is reported as 0.25. It also gave an FICa (C. albicans cells; [5]) of 0.25.
For `OO` [H2O2], the “increase in cytosolic Ca2+ concentration” value [2] was “up to 50%”.
In the case of NFFKRIRRAGKRIRKAIISA [ΔM3], the IC90 (C. albicans cells; cells) is given as 50000 nM, the FICI (C. albicans cells) is given as 0.062 and the hemolytic activity (human erythrocytes) is given as “low”.
NFFKRIRRAWKRIWKWIYSA [ΔM4] gave an IC90 (C. albicans cells; cells) of 3100 nM and an FICI (C. albicans cells) of 0.370.
